Data: article PMC7830877, “Possibility to Biotransform Anthracyclines by Peroxidases Produced by Bjerkandera adusta CCBAS 930 with Reduction of Geno- and Cytotoxicity and Pro-Oxidative Activity” (Molecules, 2021)
Where two headings read alike, the source gives them in different places.

Experiments:
[1] = tested on: caspase-3 activity in BJ fibroblasts; assay: Caspase-3 activity; assay type: cell-based, human; settings: BJ cells; 24 h; medium with initial solutions
Experimental: The human skin fibroblasts cell line BJ (ATCC CRL-2522) was obtained from American Type Culture Collection (ATCC, distributors: LGC Standards, Łomianki, Poland). BJ cells were maintained in MEM medium without phenol red supplemented with 10% fetal bovine serum (FBS). Cells were maintained at 37 °C in a humidified atmosphere with 5% CO2. Cells were seeded in 96-well culture plates (Costar, St. Louis, MO, USA) at a density of 5 × 10^3 per well and initially cultured before the experiment for 24 h. […] Caspase-3 activity was assessed according to previous described method Nicholson et al. After 24 or 48 h of treatment with studied media culture plates were frozen in −80 °C and kept until assay. […] The lysates were incubated with substrate Ac-DEVD-pNA for caspase-3 at 37 °C. Cells treated with 1 μM staurosporine were used as a positive control (results not shown). After 30 min, absorbance of the lysates at 405 nm was measured using a microplate reader (FilterMax F5 Multi-Mode microplate reader). The amount of colorimetric product was continuously monitored for 120 min. The data were analyzed using Multi-Mode Analysis software (Molecular Devices, Corp., Sunnyvale, CA, USA).

V. fischeri = assay: Ecotoxicity assay (Microtox); assay type: cell-based, Vibrio fischeri; settings: initial media 10 µg/mL or decolorized post-culture fluids
Experimental: The Microtox® (Model 500 Analyzer, London, UK) toxicity assay was used to evaluate the inhibition of luminescence of V. fischeri marine bacteria for untreated medium supplemented with DNR and DOX (10 µg/mL) and post-culture liquids of B. adusta CCBAS 930 according to the manufacturer’s protocol.

B. adusta CCBAS 930 = assay: Free radical (SOR) content in B. adusta CCBAS 930 cultures (NBT); design: species or system Bjerkandera adusta
Experimental: The content of PhC was determined spectrophotometrically at A740nm according to Singleton and Rossi (1965) with a slight modification. SOR levels were estimated based on the detection of superoxide-induced formazan formation from nitrotetrazolium blue (NBT) (A560nm). Untreated medium with DNR or DOX at a concentration of 10 µg/mL was used as control.

bacteria = assay: Genotoxicity assay (SOS ChromoTest); settings: before treatment
[2] = DPPH radical scavenging assay; assay type: physicochemical; settings: initial solutions 10 µg/mL
Experimental: Antioxidant activity was measured using the DPPH^• radical scavenging assay according to Brand-Williams et al. (1995). Each 100 μL of post-culture fluids and initial DNR and DOX (10 μg/mL) solutions were mixed with 100 μL of […] DPPH^• solution in 96% ethanol. Following 30 min incubation at room temperature, sample absorbance was measured […]) using 96% ethanol as a blank sample.

BJ fibroblasts [3] = assay: ROS production (H2DCFDA); assay type: cell-based, human; settings: BJ cells
Experimental: The human skin fibroblasts cell line BJ (ATCC CRL-2522) was obtained from American Type Culture Collection (ATCC, distributors: LGC Standards, Łomianki, Poland). BJ cells were maintained in MEM medium without phenol red supplemented with 10% fetal bovine serum (FBS). Cells were maintained at 37 °C in a humidified atmosphere with 5% CO2. Cells were seeded in 96-well culture plates (Costar, St. Louis, MO, USA) at a density of 5 × 10^3 per well and initially cultured before the experiment for 24 h. […] The ROS measurement was performed according to a previously described method. […] The cells were incubated in H2DCFDA in serum-free and phenol red-free medium for 45 min before conditioned medium treatment. After 24 and 48 h of incubation of the cells with increasing concentrations of compounds (5% CO2 at 37 °C), the culture medium was replaced with fresh medium to remove extracellular residual DCF and studied compounds to reduce the fluorescence background. Cells treated with 0.3% hydrogen peroxide (H2O2) were used as a positive control (result not shown).

BJ fibroblasts [4] = assay: Resazurin reduction assay; assay type: cell-based, human; settings: BJ cells, medium with initial solution
Experimental: The human skin fibroblasts cell line BJ (ATCC CRL-2522) was obtained from American Type Culture Collection (ATCC, distributors: LGC Standards, Łomianki, Poland). BJ cells were maintained in MEM medium without phenol red supplemented with 10% fetal bovine serum (FBS). Cells were maintained at 37 °C in a humidified atmosphere with 5% CO2. Cells were seeded in 96-well culture plates (Costar, St. Louis, MO, USA) at a density of 5 × 10^3 per well and initially cultured before the experiment for 24 h. […] The resazurin reduction cell viability and metabolism assay was performed according to a previously described method. On the day of analysis, a working solution of 60 µM resazurin was prepared in medium containing 1% FBS. […] Fluorescence was measured with an excitation wavelength of 530 nm and emission 590 nm on a FilterMax F5 Multi-Mode microplate reader (Molecular Devices, Corp., Sunnyvale, CA, USA) for 1 and 2 h after dye addition.

BJ fibroblasts [5] = assay: Calcein AM staining; assay type: cell-based, human; settings: BJ cells; 24 and 48 h; parent vs Control 1, metabolite vs parent
Experimental: The human skin fibroblasts cell line BJ (ATCC CRL-2522) was obtained from American Type Culture Collection (ATCC, distributors: LGC Standards, Łomianki, Poland). BJ cells were maintained in MEM medium without phenol red supplemented with 10% fetal bovine serum (FBS). Cells were maintained at 37 °C in a humidified atmosphere with 5% CO2. Cells were seeded in 96-well culture plates (Costar, St. Louis, MO, USA) at a density of 5 × 10^3 per well and initially cultured before the experiment for 24 h.

[6] = design: method as in PMID 17867890; settings: SOS Chromotest, cited from earlier work

Row | SMILES | caspase-3 activity [1] | toxicity units (TU) (V. fischeri) | decrease in the content of free radicals (B. adusta CCBAS 930) [%] | CIF (corrected induction factor) (bacteria; C 0.15 µg mL^−1) | CIF (corrected induction factor) (bacteria; C 0.31 µg mL^−1) | CIF (corrected induction factor) (bacteria; C 0.62 µg mL^−1) | CIF (corrected induction factor) (bacteria; C 1.25 µg mL^−1) | CIF (corrected induction factor) (bacteria; C 2.50 µg mL^−1) | CIF (corrected induction factor) (bacteria; C 5 µg mL^−1) | CIF (corrected induction factor) (bacteria; C 10 µg mL^−1) | antioxidant activity (DPPH scavenging) [2] | ROS production induced compared to Control 1 (BJ fibroblasts [3]; 24 h) [%] | ROS production induced compared to Control 1 (BJ fibroblasts [3]; 48 h) [%] | decrease in resazurin reduction compared to Control 1 (BJ fibroblasts [4]; 24 h) [%] | decrease in resazurin reduction compared to Control 1 (BJ fibroblasts [4]; 48 h) [%] | cell number (calcein AM staining) (BJ fibroblasts [5]) | concentration exhibiting genotoxic properties ([6]; with metabolic activation) [ng/mL] | concentration exhibiting genotoxic properties ([6]; without metabolic activation) [ng/mL]
1 | COc1cccc2c1C(=O)c1c(O)c3c(c(O)c1C2=O)C[C@@](O)(C(C)=O)C[C@@H]3O[C@H]1C[C@H](N)[C@H](O)[C@H](C)O1 [DNR, daunomycin] | not affected | 1.79 ± 0.09 | 90.30 | 2.50 | 1.60 | 1.21 | 1.54 | 2.80 | 5.68 | 13.42 | did not show any antioxidant activity | 625.72 | 372.97 | 48.49 | 48.40 | decrease in cell number |  | 
2 | COc1cccc2c1C(=O)c1c(O)c3c(c(O)c1C2=O)C[C@@](O)(C(=O)CO)C[C@@H]3O[C@H]1C[C@H](N)[C@H](O)[C@H](C)O1 [DOX, doxorubicin] | not affected | 1.90 ± 0.13 | 90.70 | 2.88 | 1.21 | 1.23 | 2.53 | 3.27 | 3.70 | 9.58 | did not show any antioxidant activity | 680.22 | 457.34 | 50.36 | 40.36 | decrease in cell number | 98 | 74
